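In this assay, cells in 96-well plates receive the compound at five concentrations for 48 hours. Endpoints are linearly interpolated between the surrounding concentrations. TGI is the concentration that stops growth completely.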
Key:
Experiment in all cases: NCI anticancer screen, dose series, 48 h
[1] = system: HCC-2998 colon
[2] = system: UACC-257 melanoma
[3] = system: UO-31 renal
[4] = system: LOX IMVI melanoma
[5] = system: KM12 colon
[6] = system: MCF7 breast
[7] = system: PC-3 prostate
[8] = system: SK-MEL-28 melanoma
[9] = system: A549 NSCLC
[10] = system: MOLT-4 leukemia
[11] = system: HOP-92 NSCLC
[12] = system: DU-145 prostate
[13] = system: HS 578T breast
[14] = system: SNB-19 CNS
[15] = system: CAKI-1 renal
[16] = system: SF-268 CNS
[17] = system: SW-620 colon
[18] = system: MDA-MB-435
[19] = system: HT29 colon
[20] = system: RXF 393 renal
[21] = system: CCRF-CEM leukemia
[22] = system: TK-10 renal
[23] = system: HOP-62 NSCLC
[24] = system: EKVX NSCLC
[25] = system: K-562 leukemia
[26] = system: SK-OV-3 ovarian
[27] = system: A498 renal
[28] = system: NCI-H23 lung
[29] = system: RPMI-8226 leukemia
[30] = system: COLO 205 colon
[31] = system: HCT-15 colon
[32] = system: T-47D breast
[33] = system: NCI-H226 lung
[34] = system: BT-549 breast
[35] = system: SK-MEL-2 melanoma
[36] = system: MALME-3M melanoma
[37] = system: ACHN renal
[38] = system: NCI/ADR-RES ovarian
[39] = system: OVCAR-4 ovarian
[40] = system: SN12C renal
[41] = system: MDA-MB-231 breast
[42] = system: OVCAR-3 ovarian
[43] = system: IGROV1 ovarian
[44] = system: HCT-116 colon
[45] = system: NCI-H460 lung
[46] = system: UACC-62 melanoma
[47] = system: OVCAR-8 ovarian
[48] = system: MDA-N
[49] = system: HL-60(TB) leukemia
[50] = system: U251 CNS
[51] = system: M14 melanoma
[52] = system: SK-MEL-5 melanoma
[53] = system: OVCAR-5 ovarian
[54] = system: 786-0 renal
[55] = system: SF-539 CNS
[56] = system: SF-295 CNS
[57] = system: NCI-H522 lung
[58] = system: SNB-75 CNS

## COc1cc2c(cc1OC)C(=O)/C(=C/c1cc(Cl)cc(Cl)c1)C2
[1]
  TGI: > 100 µM
[2]
  TGI: > 100 µM
[3]
  TGI: > 100 µM
[4]
  TGI: > 100 µM
[5]
  TGI: > 21.4 µM
[6]
  TGI: > 100 µM
[7]
  TGI: > 100 µM
[8]
  TGI: > 100 µM
[9]
  TGI: > 100 µM
[10]
  TGI: > 100 µM
[11]
  TGI: 99.6 µM
[12]
  TGI: > 100 µM
[13]
  TGI: > 100 µM
[14]
  TGI: > 100 µM
[15]
  TGI: > 100 µM
[16]
  TGI: > 100 µM
[17]
  TGI: > 100 µM
[18]
  TGI: > 19.6 µM
[19]
  TGI: > 100 µM
[20]
  TGI: > 100 µM
[21]
  TGI: > 100 µM
[22]
  TGI: > 100 µM
[23]
  TGI: > 100 µM
[24]
  TGI: > 100 µM
[25]
  TGI: > 44.4 µM
[26]
  TGI: > 54.6 µM
[27]
  TGI: > 100 µM
[28]
  TGI: > 100 µM
[29]
  TGI: > 100 µM
[30]
  TGI: > 100 µM
[31]
  TGI: > 100 µM
[32]
  TGI: > 100 µM
[33]
  TGI: > 100 µM
[34]
  TGI: > 100 µM
[35]
  TGI: > 95 µM
[36]
  TGI: > 59.7 µM
[37]
  TGI: > 100 µM
[38]
  TGI: 10.4 µM
[39]
  TGI: 98.1 µM
[40]
  TGI: > 100 µM
[41]
  TGI: > 100 µM
[42]
  TGI: > 100 µM
[43]
  TGI: > 100 µM
[44]
  TGI: > 100 µM
[45]
  TGI: > 100 µM
[46]
  TGI: > 95.8 µM
[47]
  TGI: > 100 µM
[48]
  TGI: 4.86 µM
[49]
  TGI: > 100 µM
[50]
  TGI: > 100 µM
[51]
  TGI: > 100 µM
[52]
  TGI: > 24.1 µM
[53]
  TGI: > 100 µM
[54]
  TGI: > 89.7 µM
[55]
  TGI: 9.94 µM

## COc1cc2c(cc1O)C1CC(CC3CCCCN31)OC(=O)/C=C\c1ccc(O)c-2c1 (stereo not given)
[1]
  TGI: 36 µM
[2]
  TGI: 39.7 µM
[3]
  TGI: 65 µM
[4]
  TGI: 32.3 µM
[5]
  TGI: 34.8 µM
[6]
  TGI: 53.2 µM
[7]
  TGI: 99.5 µM
[8]
  TGI: 85.2 µM
[9]
  TGI: > 100 µM
[10]
  TGI: 60.2 µM
[11]
  TGI: 97.9 µM
[12]
  TGI: 89.6 µM
[56]
  TGI: 29.1 µM
[13]
  TGI: 57.5 µM
[14]
  TGI: > 100 µM
[15]
  TGI: 66.4 µM
[16]
  TGI: 72.3 µM
[17]
  TGI: > 100 µM
[18]
  TGI: 50.8 µM
[19]
  TGI: 50.4 µM
[57]
  TGI: 65 µM
[21]
  TGI: 90.5 µM
[22]
  TGI: 95.8 µM
[24]
  TGI: > 100 µM
[58]
  TGI: 34.2 µM
[25]
  TGI: > 100 µM
[26]
  TGI: 96.7 µM
[27]
  TGI: 30.6 µM
[28]
  TGI: > 100 µM
[29]
  TGI: 89.8 µM
[30]
  TGI: 83.1 µM
[31]
  TGI: > 100 µM
[32]
  TGI: 45.7 µM
[33]
  TGI: > 100 µM
[34]
  TGI: 67.5 µM
[35]
  TGI: 72.1 µM
[36]
  TGI: 40.2 µM
[37]
  TGI: > 100 µM
[38]
  TGI: 75.7 µM
[39]
  TGI: > 100 µM
[40]
  TGI: > 100 µM
[41]
  TGI: 64.8 µM
[42]
  TGI: 62 µM
[43]
  TGI: > 100 µM
[44]
  TGI: > 100 µM
[45]
  TGI: > 100 µM
[46]
  TGI: 45.2 µM
[47]
  TGI: 54.2 µM
[48]
  TGI: > 100 µM
[49]
  TGI: 58.3 µM
[50]
  TGI: > 100 µM
[51]
  TGI: 46.6 µM
[52]
  TGI: 31.4 µM
[53]
  TGI: > 100 µM
[54]
  TGI: > 100 µM
[55]
  TGI: 34.6 µM

## COc1cccc(/C=C\c2ccnc3ccccc23)c1
[1]
  TGI: > 10 µM
[2]
  TGI: > 10 µM
[3]
  TGI: > 10 µM
[4]
  TGI: > 10 µM
[5]
  TGI: > 10 µM
[6]
  TGI: > 10 µM
[7]
  TGI: > 10 µM
[8]
  TGI: > 10 µM
[9]
  TGI: > 10 µM
[10]
  TGI: > 10 µM
[11]
  TGI: > 10 µM
[12]
  TGI: > 10 µM
[56]
  TGI: > 10 µM
[13]
  TGI: > 10 µM
[14]
  TGI: > 10 µM
[15]
  TGI: > 10 µM
[16]
  TGI: > 10 µM
[17]
  TGI: > 10 µM
[18]
  TGI: > 10 µM
[19]
  TGI: > 10 µM
[57]
  TGI: > 10 µM
[20]
  TGI: > 10 µM
[21]
  TGI: > 10 µM
[22]
  TGI: > 10 µM
[23]
  TGI: > 10 µM
[24]
  TGI: > 10 µM
[58]
  TGI: > 10 µM
[25]
  TGI: > 10 µM
[26]
  TGI: > 10 µM
[27]
  TGI: > 10 µM
[28]
  TGI: > 10 µM
[29]
  TGI: > 10 µM
[30]
  TGI: > 10 µM
[31]
  TGI: > 10 µM
[32]
  TGI: > 10 µM
[33]
  TGI: > 10 µM
[34]
  TGI: > 10 µM
[35]
  TGI: > 10 µM
[36]
  TGI: > 10 µM
[37]
  TGI: > 10 µM
[38]
  TGI: > 10 µM
[39]
  TGI: > 10 µM
[40]
  TGI: > 10 µM
[41]
  TGI: > 10 µM
[42]
  TGI: > 10 µM
[43]
  TGI: > 10 µM
[44]
  TGI: > 10 µM
[45]
  TGI: > 10 µM
[46]
  TGI: > 10 µM
[47]
  TGI: > 10 µM
[48]
  TGI: > 10 µM
[49]
  TGI: > 10 µM
[50]
  TGI: > 10 µM
[51]
  TGI: > 10 µM
[52]
  TGI: > 10 µM
[53]
  TGI: > 10 µM
[54]
  TGI: > 10 µM
[55]
  TGI: > 10 µM

## CSc1nc(Br)nc2ncn(C3CC(Oc4ccc(C)cc4)C(COc4ccc(C)cc4)O3)c12 (stereo not given)
[1]
  TGI: > 100 µM
[2]
  TGI: > 100 µM
[3]
  TGI: 75.7 µM
[4]
  TGI: > 100 µM
[5]
  TGI: > 100 µM
[6]
  TGI: > 100 µM
[7]
  TGI: > 100 µM
[8]
  TGI: > 100 µM
[9]
  TGI: > 100 µM
[10]
  TGI: > 100 µM
[11]
  TGI: > 100 µM
[12]
  TGI: > 100 µM
[56]
  TGI: > 100 µM
[13]
  TGI: 63.5 µM
[14]
  TGI: > 100 µM
[15]
  TGI: > 100 µM
[16]
  TGI: > 100 µM
[17]
  TGI: > 100 µM
[18]
  TGI: > 100 µM
[19]
  TGI: > 100 µM
[57]
  TGI: > 100 µM
[21]
  TGI: > 100 µM
[22]
  TGI: > 100 µM
[23]
  TGI: > 100 µM
[24]
  TGI: > 100 µM
[58]
  TGI: > 100 µM
[26]
  TGI: > 100 µM
[27]
  TGI: > 100 µM
[28]
  TGI: > 100 µM
[29]
  TGI: > 100 µM
[30]
  TGI: > 100 µM
[31]
  TGI: > 100 µM
[32]
  TGI: > 100 µM
[33]
  TGI: > 100 µM
[34]
  TGI: > 100 µM
[35]
  TGI: > 100 µM
[36]
  TGI: > 100 µM
[37]
  TGI: > 100 µM
[38]
  TGI: > 100 µM
[39]
  TGI: > 100 µM
[40]
  TGI: > 100 µM
[41]
  TGI: > 100 µM
[42]
  TGI: > 100 µM
[43]
  TGI: > 100 µM
[44]
  TGI: > 100 µM
[45]
  TGI: > 100 µM
[46]
  TGI: > 100 µM
[47]
  TGI: > 100 µM
[48]
  TGI: > 100 µM
[49]
  TGI: > 100 µM
[50]
  TGI: > 100 µM
[51]
  TGI: > 100 µM
[52]
  TGI: > 100 µM
[53]
  TGI: > 100 µM
[54]
  TGI: > 100 µM
[55]
  TGI: > 100 µM

Source: PubChem BioAssay (NCI)
